pIC50: −log10 of the molar value.
Experiments:
IL-4 = biological target: T1, IL-4 (Homo sapiens, UniProt P05112); test: Immunoassay binding test, IL-4; conditions: for pIC50: IL-4 400 ng/ml, receptor 100 ng/ml, read-out: BINDING IL4 IC50
T1 sequence (P05112 25-153): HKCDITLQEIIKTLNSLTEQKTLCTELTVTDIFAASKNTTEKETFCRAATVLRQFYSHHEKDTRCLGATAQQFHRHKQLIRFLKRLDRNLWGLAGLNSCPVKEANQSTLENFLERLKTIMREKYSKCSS
Description: (§1) Microtiter plates (96 wells) are covered with 100 μl of receptor per well, and incubated overnight at 4° C. The following day, after 2 washes in PBS/Tween20, the plates are saturated with 150 μl of PBS/BSA 2% per well, for 2 h at 37° C. Synthetic compounds are diluted in series (final concentrations: 100 to 0.78 μM) then a fixed amount of cytokine in PBS/BSA 1% is added to the compounds, in a final volume of 120 μl per well. […] The cytokine is diluted in series (six concentrations) in a final volume of 120 μl per well. The cytokine is used in the absence of small molecule as well as the range of SPD304 as positive controls and the absence of cytokine and synthetic molecule as negative control. The different mixtures are incubated for 2 h at 37° C. 100 μl of each mixture are then transferred to the microtiter plate, respecting the plate plan previously defined and incubated overnight at 4° C. After three washes, 100 μl of biotinylated anti-cytokine secondary antibody are added to each well, then incubated for 2 h at 37° C. After three washes, 100 μl of Avidin-HRP (1/500th dilution) are added and incubated for 30 minutes at 37° C. […] The plates are then read with a spectrophotometer at 450 nm, measuring the optical density for each well.
(§2) This binding test is carried out with different cytokines: TNFa, IL-4, IL-6 and IL-13. For IL-6, the incubation of molecules with the cytokine also requires the presence of IL-6Ra at a final concentration of 200 ng/ml.
(§3) The final concentrations used for each of the cytokines are presented below: […]

TNFα = TNFα (Homo sapiens, UniProt P01375); test: Immunoassay binding test, TNFa; conditions: compounds 100 to 0.78 μM; TNFα 10 ng/ml, receptor 100 ng/ml; read-out: BINDING TNF IC50
Sequence of TNFα (P01375 77-233 limits assumed, species assumed): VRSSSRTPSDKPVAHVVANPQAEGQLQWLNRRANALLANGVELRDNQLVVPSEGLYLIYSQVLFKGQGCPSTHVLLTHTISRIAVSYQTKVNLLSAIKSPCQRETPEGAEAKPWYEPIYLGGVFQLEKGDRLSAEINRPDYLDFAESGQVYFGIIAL
Description: as §1, with “C.” for “C. Synthetic compounds are diluted in series (final concentrations: 100 to 0.78 μM) then a fixed amount of cytokine in PBS/BSA 1% is added to the compounds, in a final volume of 120 μl per well.”, “The cytokine is used in the absence of small molecule as well as the range of SPD304 as positive controls and the absence of cytokine and synthetic molecule as negative control.” left out
as §2, §3

IL-13 = IL-13 (Homo sapiens, UniProt P35225); test: Immunoassay binding test, IL-13; conditions: for pIC50: IL-13 400 ng/ml, receptor 100 ng/ml, read-out: BINDING IL13 IC50
Sequence of IL-13 (P35225 25-146, species assumed): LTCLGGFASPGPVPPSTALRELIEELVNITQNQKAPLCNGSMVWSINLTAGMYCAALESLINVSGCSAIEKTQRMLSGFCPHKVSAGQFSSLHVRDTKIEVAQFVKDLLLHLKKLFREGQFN
Description: as §1, with “The cytokine is used in the absence of small molecule as well as the range of SPD304 as positive controls and the absence of cytokine and synthetic molecule as negative control.” left out
as §2, §3

IL-6 = IL-6 (Homo sapiens, UniProt P05231); test: Immunoassay binding test, IL-6 (gp130 receptor, IL-6Ra present); conditions: IL-6Ra 200 ng/ml
Sequence of IL-6 (P05231 30-212, species assumed): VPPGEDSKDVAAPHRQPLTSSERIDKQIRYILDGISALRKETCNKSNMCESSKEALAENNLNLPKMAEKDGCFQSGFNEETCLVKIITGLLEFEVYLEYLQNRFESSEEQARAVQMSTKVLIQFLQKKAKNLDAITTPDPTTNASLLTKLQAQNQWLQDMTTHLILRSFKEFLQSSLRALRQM
Description: as §1, §2, §3

TNFa/TNFRI interaction = TNFa/TNFRI interaction (Homo sapiens, UniProt P01375); test: TNFa/TNFRI interaction displacement test; assay type: binding; conditions: for Displacement EC50 TNFa in presence of compound: Difference: Compound EC50 minus SPD304 EC50; for Displacement (%): compounds at 50 μM, human TNFRI 100 ng/ml;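 as to Displacement EC50 TNFa in presence of compound: Difference: SPD304 reference at 20 µM final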
Sequence of TNFa/TNFRI interaction (P01375 77-233 limits assumed): as the sequence (P01375 77-233 limits assumed, species assumed) above
Description: Microtiter plates (96 wells) are covered with 100 μl per well of human TNFRI, at a concentration of 100 ng/ml, then incubated overnight at 4° C. The following day, after two washes in PBS/Tween20, the plates are saturated with 150 μl of PBS/BSA 2% for 2 h at 37° C.
100 μl of each mixture are then transferred to the microtiter plate, respecting the established plate plan and incubated overnight at 4° C.
After three washes, 100 μl of biotinylated anti-cytokine secondary antibody are added to each well and incubated for 2 h at 37° C. After three washes, 100 Avl Avidin-HRP (dilution 1/500th) are added and incubated for 30 minutes at 37° C. […] The plates are then read with a spectrophotometer at 450 nm, measuring the optical density (OD) for each well.

| Structure (SMILES) | BINDING IL4 % Neutra at 100 μM (IL-4) [%] | pIC50 (IL-4) | pIC50 (TNFα) | BINDING IL13 % Neutra at 100 μM (IL-13) [%] | pIC50 (IL-13) | BINDING IL6 % Neutra at 100 μM (IL-6) [%] | Displacement EC50 TNFa in presence of compound: Difference (TNFa/TNFRI interaction) [µg/mL] | Displacement (%) (TNFa/TNFRI interaction) |
| --- | --- | --- | --- | --- | --- | --- | --- | --- |
| NCCCCN(Cc1cccnc1F)Cc1cn(S(=O)(=O)c2ccccc2)c2ccccc12 [Compound 63] | 85.9 | 4.80 | 4.58 | 55.4 | < 4.30 | 0 |  | 88 |
| O=S(=O)(NCCCCN(Cc1cccnc1F)Cc1cn(S(=O)(=O)c2ccccc2)c2ccccc12)N1CCCCCC1 [Compound 81] | 39.3 | < 4.30 | < 4.30 | 0 |  | 1 |  | 0 |
| O=S(=O)(c1ccccc1)n1cc(CN(CCCCCNC2CCCCC2)Cc2ccc(F)nc2)c2ccccc21 [Compound 56] | 91.9 | 5.59 | 4.88 | 93.4 | 4.99 | 0 |  | 124 |
| O=S(=O)(c1ccccc1)n1cc(CN(CCCNC2CCCCC2)Cc2ccncc2)c2ccccc21 [Compound 8] | 98.1 | 5.28 | 4.91 | 81.7 | < 4.30 | 3.3 | 0.0109 | 168 |
| CN(CCCCN(Cc1cccnc1F)Cc1cn(S(=O)(=O)N2CCCC2)c2ccccc12)C1CCCCC1 [Compound 110, N1-cyclohexyl-N4-((2-fluoropyridin-3-yl)methyl)-N1-methyl-N4-((1-(pyrrolidin-1-ylsulfonyl)-1H-indol-3-yl)methyl)butane-1,4-diamine] |  |  | 4.77 |  |  |  |  | 83 |
| O=S(=O)(c1ccccc1)n1cc(CN(CCCCCNCc2ccnc(F)c2)Cc2ccnc(F)c2)c2ccccc21 [Compound 61] |  |  | 4.53 |  |  |  |  | 64 |
| O=S(=O)(c1ccccc1)n1cc(CN(CCCCCNC2CCCCC2)Cc2cccnc2F)c2ccccc21 [Compound 46, N1-cyclohexyl-N5-((2-fluoropyridin-3-yl)methyl)-N5-((1-(phenylsulfonyl)-1H-indol-3-yl)methyl)pentane-1,5-diamine] |  |  | 4.97 |  |  |  |  | 124 |
| CN(CCOCCN(Cc1cccnc1F)Cc1cn(S(=O)(=O)N2CCCCC2)c2ccccc12)C1CCCCC1 [Compound 112, N-(2-(2-(((2-fluoropyridin-3-yl)methyl) ((1-(piperidin-1-ylsulfonyl)-1H-indol-3-yl)methyl)amino)ethoxy)ethyl)-N-methylcyclohexanamine] |  |  | 4.89 |  |  |  |  | 245 |

These reach a higher pIC50 (TNFα). Values come first.

| BINDING IL4 % Neutra at 100 μM (IL-4) [%] | pIC50 (IL-4) | pIC50 (TNFα) | BINDING IL13 % Neutra at 100 μM (IL-13) [%] | pIC50 (IL-13) | BINDING IL6 % Neutra at 100 μM (IL-6) [%] | Displacement EC50 TNFa in presence of compound: Difference (TNFa/TNFRI interaction) [µg/mL] | Displacement (%) (TNFa/TNFRI interaction) | Structure (SMILES) |
| --- | --- | --- | --- | --- | --- | --- | --- | --- |
| 95.4 | 5.23 | 5.14 | 97.9 | < 4.30 | −4.8 | 0.0099 | 256 | O=S(=O)(c1ccccc1)n1cc(CN(CCCCCNC2CCCCC2)Cc2cccnc2)c2ccccc21 [Compound 34] |
| 92.6 | 5.31 | 5.30 | 87.9 | < 4.30 | 6 |  | 188 | O=S(=O)(c1ccccc1)n1cc(CN(CCCCN(C2CCC2)C2CCC2)Cc2cccnc2F)c2ccccc21 [Compound 86] |
| 89.5 | 5.25 | 5.09 | 88.8 | 4.62 | 0 |  | 127 | CN(CCCCN(Cc1cccnc1F)Cc1cn(S(=O)(=O)c2ccccc2)c2ccccc12)C1CCCCC1 [Compound 49, N1-cyclohexyl-N4-((2-fluoropyridin-3-yl)methyl)-N1-methyl-N4-((1-(phenylsulfonyl)-1H-indol-3-yl)methyl)butane-1,4-diamine] |
|  |  | 5.07 |  |  |  |  | 109 | O=S(=O)(c1ccccc1)n1cc(CN(CCCCNC2CCCCC2)Cc2ccnc(F)c2)c2ccccc21 [Compound 44, N1-cyclohexyl-N4-((2-fluoropyridin-4-yl)methyl)-N4-((1-(phenylsulfonyl)-1H-indol-3-yl)methyl)butane-1,4-diamine] |
|  |  | 5.22 |  |  |  |  | 224 | CN1CCN(S(=O)(=O)n2cc(CN(CCOCCN(C)C3CCCCC3)Cc3cccnc3F)c3ccccc32)CC1 [Compound 111, N-(2-(2-(((2-fluoropyridin-3-yl)methyl)((1-((4-methylpiperazin-1-yl)sulfonyl)-1H-indol-3-yl)methyl)amino)ethoxy)ethyl)-N-methylcyclohexanamine] |
|  |  | 5.03 |  |  |  |  | 113 | CN(CCCCN(Cc1ccc(F)nc1)Cc1cn(S(=O)(=O)c2ccccc2)c2ccccc12)C1CCCCC1 [Compound 57, N1-cyclohexyl-N4-((6-fluoropyridin-3-yl)methyl)-N1-methyl-N4-((1-(phenylsulfonyl)-1H-indol-3-yl)methyl)butane-1,4-diamine] |
|  |  | 5.17 |  |  |  |  | 219 | CCCN(CCCCN(Cc1cccnc1F)Cc1cn(S(=O)(=O)c2ccccc2)c2ccccc12)C1CCCCC1 [Compound 67, N′-cyclohexyl-N^4-((2-fluoropyridin-3-yl)methyl)-N^4-((1-(phenylsulfonyl)-1H-indol-3-yl)methyl)-N′-propylbutane-1,4-diamine] |
| 92.8 | 5.34 | 5.10 |  |  | 1 |  | 154 | CN(CCCCN(Cc1cccnc1F)Cc1cn(S(=O)(=O)c2ccccc2)c2ccccc12)C1CCCCCCC1 [Compound 76, N′-cyclooctyl-N^4-((2-fluoropyridin-3-yl)methyl)-N′-methyl-N^4-((1-(phenylsulfonyl)-1H-indol-3-yl)methyl)butane-1,4-diamine] |
|  |  | 5.11 |  |  |  |  | 172 | O=S(=O)(c1ccccc1)n1cc(CN(CCCCNC2CCCCC2)Cc2ccc(F)nc2)c2ccccc21 [Compound 55, N1-cyclohexyl-N4-((6-fluoropyridin-3-yl)methyl)-N4-((1-(phenylsulfonyl)-1H-indol-3-yl)methyl)butane-1,4-diamine] |

From patent US20230416239A1, “COMPOUNDS AND METHODS FOR TREATING A CYTOKINE-MEDIATED DISEASE” (CONSERVATOIRE NATIONAL DES ARTS ET MÉTIERS, priority 2020, published 2023)
